Assay results as given in patent US4736045A, “Process for fluorinating ethers” (priority 1983, dated 1988).

Assay: Critical temperature and normal boiling point of heat pump working fluids
Assay type: physicochemical
Settings: working fluid in a heat pump (TC = 150° C., TE = 100° C.)

Structure (SMILES)	critical temperature [°C]	normal boiling point [°C]
COCC(F)(F)C(F)C(F)(F)F (stereo not shown) [1.1.1.2.3.3. hexafluoro butyl methyl ether]	236	87
FC(F)(F)C(F)(F)C(F)(F)C1(F)OC(F)(F)C(F)(F)C1(F)F (stereo not shown) [perfluoro-2-propyloxolane]	206	79
